The results in this text go back to US20090111825A1, “THIOPHENE 1,2,4-TRIAZOLE DERIVATIVES AS MODULATORS OF MGLUR5” (priority 2007, published 2009).

One data set concerns the target T1, human mGluR5d (Homo sapiens, UniProt P41594).
T1 construct: expressed in transfected cells
In words: FLIPR assay, mobilization of intracellular calcium in cells expressing human mGluR5d. As to conditions: antagonism of agonist response, read-out: FLIPR hmGluR5d. It is filed as cell-based. An excerpt:
The properties of the compounds of the invention can be analyzed using standard assays for pharmacological activity. Examples of glutamate receptor assays are well known in the art as described in for example Aramori et al., Neuron 8:757 (1992), Tanabe et al., Neuron 8:169 (1992), Miller et al., J. Neuroscience 15: 6103 (1995), Balazs, et al., J. Neurochemistry 69:151 (1997). The methodology described in these publications is incorporated herein by reference. Conveniently, the compounds of the invention can be studied by means of an assay (FLIPR) that measures the mobilization of intracellular calcium, [Ca^2+]i in cells expressing mGluR5 or another assay (IP3) that measures inositol phosphate turnover.
Cells expressing human mGluR5d as described in WO97/05252 cultured in a mixture of high glucose DMEM with Glutamax (31966-021)(500 mL), 10% dialyzed fetal bovine serum (Hyclone #SH30079.03)(56 mL), 200 μg/mL Hygromycin B (Invitrogen 45-0430, 50 mg/mL)(2.2 mL), 200 μg/mL Zeocin (Invitrogen #R250-01; 100 mg/mL)(1.1 mL) are seeded at a density of 100,000 cells per well on collagen coated clear bottom 96-well plates with black sides and cells were allowed to adhere over night before experiments. All assays are done in a buffer containing 146 mM NaCl, 5 mM KCl, 1 mM MgCl2, 1 mM CaCl2, 20 mM HEPES, 1 mg/mL glucose and 1 mg/mL BSA Fraction IV (pH 7.4). Cell cultures in the 96-well plates are loaded for 60 minutes in the above mentioned buffer containing 6 μM of the acetoxymethyl ester form of the fluorescent calcium indicator fluo-3 (Molecular Probes, Eugene, Oreg.) in 0.025% pluronic acid (a proprietary, non-ionic surfactant polyol—CAS Number 9003-11-6). Following the loading period the fluo-3 buffer is removed and replaced with fresh assay buffer. FLIPR experiments are done using a laser setting of 0.700 W and a 0.4 second CCD camera shutter speed with excitation and emission wavelengths of 488 nm and 562 nm, respectively. Each experiment is initiated with 160 μl of buffer present in each well of the cell plate. A 40 μl addition from the antagonist plate was followed by a 50 μL addition from the agonist plate. A 30 minutes, in dark at 25° C., interval separates the antagonist and agonist additions. The fluorescence signal is sampled 50 times at 1-second intervals followed by 3 samples at 5-second intervals immediately after each of the two additions. Responses are measured as the difference between the peak heights of the response to agonist) less the background fluorescence within the sample period. IC50 determinations are made using a linear least squares fitting program.

The nature of data set [1]: Determination of brain to plasma ratio in rat. The conditions noted are these: brain and plasma, female Sprague Dawley rats, drug in brain over drug in plasma, read-out: Brain/Plasma Ratio of compound in Rat. Type of data set: in vivo. The protocol: Brain to plasma ratios are estimated in female Sprague Dawley rats. The compound is dissolved in water or another appropriate vehicle. For determination of brain to plasma ratio the compound is administrated as a subcutaneous, or an intravenous bolus injection, or an intravenous infusion, or an oral administration. At a predetermined time point after the administration a blood sample is taken with cardiac puncture. The rat is terminated by cutting the heart open, and the brain is immediately retained. The blood samples are collected in heparinized tubes and centrifuged within 30 minutes, in order to separate the plasma from the blood cells. The plasma is transferred to 96-well plates and stored at −20° C. until analysis. The brains are divided in half, and each half is placed in a pre-tarred tube and stored at −20° C. until analysis. Prior to the analysis, the brain samples are thawed and 3 mL/g brain tissue of distilled water is added to the tubes. The brain samples are sonicated in an ice bath until the samples are homogenized. Both brain and plasma samples are precipitated with acetonitrile. After centrifugation, the supernatant is diluted with 0.2% formic acid. Analysis is performed on a short reversed-phase HPLC column with rapid gradient elution and MSMS detection using a triple quadrupole instrument with electrospray ionization and Selected Reaction Monitoring (SRM) acquisition. Liquid-liquid extraction may be used as an alternative sample clean-up. The samples are extracted, by shaking, to an organic solvent after addition of a suitable buffer. An aliquot of the organic layer is transferred to a new vial and evaporated to dryness under a stream of nitrogen. After reconstitution of the residuals the samples are ready for injection onto the HPLC column.

Bounds are passed on as bounds.

T1 sequence (P41594 21-942 isoform P41594-3 limits assumed): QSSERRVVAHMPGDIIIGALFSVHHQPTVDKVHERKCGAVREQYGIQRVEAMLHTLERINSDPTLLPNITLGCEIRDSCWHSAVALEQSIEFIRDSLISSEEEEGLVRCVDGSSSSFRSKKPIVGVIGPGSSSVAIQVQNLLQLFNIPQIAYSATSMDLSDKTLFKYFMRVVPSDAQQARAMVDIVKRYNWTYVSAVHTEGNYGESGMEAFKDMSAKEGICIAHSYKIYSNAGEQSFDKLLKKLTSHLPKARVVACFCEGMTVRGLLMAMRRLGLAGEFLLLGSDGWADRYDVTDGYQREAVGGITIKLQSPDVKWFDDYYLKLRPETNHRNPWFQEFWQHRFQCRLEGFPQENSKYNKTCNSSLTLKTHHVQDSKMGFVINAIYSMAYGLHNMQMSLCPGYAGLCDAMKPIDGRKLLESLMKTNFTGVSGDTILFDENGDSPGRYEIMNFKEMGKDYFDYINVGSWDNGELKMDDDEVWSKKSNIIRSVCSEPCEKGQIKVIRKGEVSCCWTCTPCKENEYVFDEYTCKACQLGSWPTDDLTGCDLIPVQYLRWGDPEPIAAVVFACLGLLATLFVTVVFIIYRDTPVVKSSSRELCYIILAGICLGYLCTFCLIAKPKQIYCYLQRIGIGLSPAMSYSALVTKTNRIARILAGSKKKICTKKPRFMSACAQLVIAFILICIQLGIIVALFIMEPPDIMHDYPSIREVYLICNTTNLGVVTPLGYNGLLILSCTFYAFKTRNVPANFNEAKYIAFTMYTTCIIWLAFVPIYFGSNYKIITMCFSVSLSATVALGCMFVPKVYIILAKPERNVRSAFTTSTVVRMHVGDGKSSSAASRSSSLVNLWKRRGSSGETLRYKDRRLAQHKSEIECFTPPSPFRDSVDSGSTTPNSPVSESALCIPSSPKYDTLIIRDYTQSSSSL

Take `Cn1c(-c2cc[nH]c(=O)c2)nnc1N1[C@@H](c2cc(-c3csc(Cl)c3)on2)C[C@H]2C[C@H]21` [Example 10.2, 4-(5-{(1R,3R,5R)-3-[5-(5-Chloro-3-thienyl)isoxazol-3-yl]-2-azabicyclo[3.1.0]hex-2-yl}-4-methyl-4H-1,2,4-triazol-3-yl)pyridin-2(1H)-one]: the IC50 at human mGluR5d worked out at 35 nM. The Kp in data set [1] was under 0.01.
The like results for `Cn1c(-c2cn[nH]c(=O)c2)nnc1N1[C@@H](c2cc(-c3csc(Cl)c3)on2)C[C@H]2C[C@H]21` [Example 10.1, 5-(5-{(1R,3R,5R)-3-[5-(5-Chloro-3-thienyl)isoxazol-3-yl]-2-azabicyclo[3.1.0]hex-2-yl}-4-methyl-4H-1,2,4-triazol-3-yl)pyridazin-3(2H)-one] were, in that order, 34 nM and 0.06.
As for `Cn1c(-c2cc[nH]c(=O)c2)nnc1N1CCC[C@@H]1c1cc(-c2csc(Cl)c2)on1` [Example 10.6, 4-(5-{(2R)-2-[5-(5-Chloro-3-thienyl)isoxazol-3-yl]pyrrolidin-1-yl}-4-methyl-4H-1,2,4-triazol-3-yl)pyridin-2(1H)-one], on human mGluR5d, the IC50 was 35 nM. Besides, in data set [1], the Kp is under 0.01.
The matching figures for `Cn1c(-c2ccn(C)c(=O)c2)nnc1N1CCC[C@@H]1c1cc(-c2csc(Cl)c2)on1` [Example 10.5, 4-(5-{(2R)-2-[5-(5-Chloro-3-thienyl)isoxazol-3-yl]pyrrolidin-1-yl}-4-methyl-4H-1,2,4-triazol-3-yl)-1-methylpyridin-2(1H)-one]: 44 nM and 0.03.
Take `Cn1c(-c2cnn(C)c(=O)c2)nnc1N1CCC[C@@H]1c1cc(-c2csc(Cl)c2)on1` [Example 10.3, 5-(5-{(2R)-2-[5-(5-Chloro-3-thienyl)isoxazol-3-yl]pyrrolidin-1-yl}-4-methyl-4H-1,2,4-triazol-3-yl)-2-methylpyridazin-3(2H)-one]: the IC50 at human mGluR5d was found to be 61 nM. The Kp in data set [1] was found to be 0.16.
The matching figures for `Cn1c(-c2cn[nH]c(=O)c2)nnc1N1CCC[C@@H]1c1cc(-c2csc(Cl)c2)on1` [Example 10.4, 5-(5-{(2R)-2-[5-(5-Chloro-3-thienyl)isoxazol-3-yl]pyrrolidin-1-yl}-4-methyl-4H-1,2,4-triazol-3-yl)pyridazin-3(2H)-one]: 39 nM and under 0.01.
